Measurements: US6924415B2 (Board of Regents, The University of Texas System, priority 2001, dated 2005)

Experiments:
[1] = tested on: neonatal rat cardiomyocytes; experiment: Morphometric analysis of cardiomyocytes (anti-sarcomeric α-actinin staining); type: cell-based; parameters: Area / Major axis / Minor axis / Major/Minor: dose or concentration left out as unconfirmed; settings: for Area / Major axis / Major/Minor / Minor axis: virus moi 100, PE or LIF (1000 units/ml) where indicated, mean ± SD
skeletal α-actin = experiment: RNA dot blot, fetal gene expression in cardiomyocytes: skeletal α-actin; type: cell-based; settings: Rattus norvegicus, Cardiomyocyte; Adβ-gal-infected cells treated with LIF (1000 units/ml) or PE (50 μM) 24 hours; relative to uninfected untreated cells
Protocol: FIGS. 4A-B. MEK5 signaling contributes to the regulation of cardiomyocyte fetal gene expression by PE and LIF. (FIG. 4A) Cardiomyocytes were either not infected (−) or infected with MEK5WT, MEK5KM or β-gal adenoviruses at an moi of 20 and serum-deprived. Thirty-six hours post-infection, cells were either not treated or treated with 50 μM PE (black bar) or 1000 units/ml LIF (white bar) for an additional 24 hours. RNA was prepared and used for dot blots with oligonucleotide probes specific for skeletal α-actin, ANF or BNP. Signal intensity was quantitated using a Phosphor Imager. The average fold induction±SD of three independent experiments is shown. “-fold” induction is relative to uninfected cells without PE or LIF treatment. (FIG. 4B) Cardiomyocytes were either not infected or infected with MEK5DD or β-gal adenoviruses at an moi of 20 and serum-deprived. Forty-eight hours post-infection, the cells were harvested and RNA was prepared. Transcript levels for α-skeletal actin, ANF or BNP were determined as described in FIG. 4A. […]
To determine whether elevated MEK5 could also transduce signals that regulate fetal gene expression, the inventors treated cardiomyocytes infected with AdMEK5WT, AdMEK5KM or Ad[…]-gal with LIF or PE and analyzed expression of atrial natriuretic factor (ANF), brain natriuretic peptide (BNP) and skeletal α-actin (FIG. 4A). […]

ERK5 [2] = settings: Kamakura et al., 1999; cited from earlier work
ERK5 [3] = experiment: ERK5 immunoprecipitation kinase assay (GST-MEF2C substrate) after treatment of cardiomyocytes; type: cell-based; settings: at 60 min; 0.3M sorbitol or 200 μM H2O2; serum-deprived neonatal rat cardiomyocytes
Protocol: Top, ERK5 was immunoprecipitated from 200 μg of cellular lysate with an antibody specific for the carboxyl-terminal 20 amino acids. Kinase assays were performed with immunoprecipitated ERK5 using GST-MEF2C substrate in the presence of [γ-^32P]-ATP. GST-MEF2C phosphorylation was detected by autoradiography after SDS-PAGE. Middle, immunoblotting was performed on immunoprecipitated material using rabbit anti-ERK5 antibody. Bottom, levels of ^32P-phosphorylated GST-MEF2C were quantitated with a Phosphor Imager.
Following incubation for 30 min at 30° C., samples were separated by SDS-PAGE and transferred to a polyvinylidene difluoride (PVDF) membrane. The level of ^32P-labeled GST-fusion protein on the membrane was analyzed using a Phosphor Imager (Molecular Dynamics). The membrane was then immunoblotted with anti-ERK5 rabbit polyclonal antibody (StressGen) at a final concentration of 150 ng/ml and proteins were visualized using a chemiluminescence system (Santa Cruz).
Eighteen hours after plating, cells were changed into serum-free media and either incubated for an additional forty-eight hours prior to treatment with hypertrophic agents or infected with adenovirus at a multiplicity of infection of 100.
Following treatment, cardiomyocytes were harvested and ERK5 immunoprecipitation (IP) kinase assays were performed with a GST-MEF2C substrate.

Compound | Area [1] [μm^2] | Major axis [1] [μm] | Major/Minor [1] | Minor axis [1] [μm] | inhibition of activation of ERK5 (ERK5 [2]) | activation of ERK5 (phosphorylation of GST-MEF2C) (ERK5 [3]) [fold] | further results
CNC[C@H](O)c1cccc(O)c1 [PE, phenylephrine] | 5745 ± 1560 | 110 ± 20 | 1.71 ± 0.37 | 66 ± 12 |  |  | fold induction at 50 µM (skeletal α-actin): 4 to 5
N#CC(=C(/N)Sc1ccccc1N)/C(C#N)=C(\N)Sc1ccccc1N [U0126] |  |  |  |  | inhibit activation of ERK5 |  | 
COc1cccc(-c2cc(=O)c3ccccc3o2)c1N [PD098059] |  |  |  |  | inhibit activation of ERK5 |  | 
OC[C@@H](O)[C@@H](O)[C@H](O)[C@@H](O)CO [sorbitol] |  |  |  |  |  | 8 | 
OO [H2O2] |  |  |  |  |  | 5 | 
LIF: IL-6 family cytokine, leukemia inhibitory factor | 3586 ± 1090 | 144 ± 36 | 5.06 | 33 ± 12 |  |  | cardiomyocyte elongation (morphology) ([1]; α-actinin staining): induced dramatic elongation
